Consider 16 compounds from publication PMC12115147, “Identification of 3-[(4-Acetylphenyl)(4-Phenylthiazol-2-Yl)Amino]Propanoic Acid Derivatives as Promising Scaffolds for the Development of Novel Anticancer Candidates Targeting SIRT2 and EGFR” (Pharmaceuticals, 2025).

The test system of data set [1] is A549 human lung adenocarcinoma cells. Kind of data set: cells. Conditions: A549, 24 h; for viability at 100 µM: read-out: A549 cell viability.
Description: (§2) The dissolved compounds were then manually dispensed into deep 96-well plates, sealed, and stored at −80 °C until the day of the experiment. For the in vitro antiproliferative activity screening, the compounds were thawed at room temperature, protected from light, and the aliquots were diluted in complete cell culture media to achieve a final concentration of 100 µM and used for the in vitro assays.
(§3) All cells were cultivated in Dulbecco’s Modified Eagle Medium/Nutrient Mixture F-12 (DMEM/F-12) (Gibco, Waltham, MA, USA), 10% fetal bovine serum (FBS) (Gibco, Waltham, MA, USA), 100 U/mL penicillin, and 100 μg/mL streptomycin (P/S) (Gibco, Waltham, MA, USA). Culturing conditions were maintained at 37 °C with a humidified atmosphere containing 5% CO2. The culture medium was refreshed every 2–3 days, and cells were passaged upon reaching 70–80% confluence.
(§4) The in vitro inhibitory effects of the compounds were assessed using the MTT assay [40, 41, 42, 43, 44]. Briefly, cells were plated in 96-well plates at a density of 1 × 10^4 cells per well. After allowing the cells to adhere overnight at 37 °C in 5% CO2, they were treated with compounds at concentration of 100 µM in triplicate. Following a 20 h incubation, MTT reagent was added, and the cells were further incubated for 4 h. The resulting formazan was solubilized in anhydrous DMSO, and absorbance was measured at 570 nm using a microplate reader. Cell viability was calculated using the following formula: ([AE − AB]/[AC − AB]) × 100%, where AE, AC, and AB represent the absorbance values of experimental samples, untreated controls, and blank wells, respectively. Data analysis was performed using GraphPad Prism or QuickCalcs (2.0 version).
(§5) The IC50 values, defined as the concentration of compound required to reduce cell viability by 50%, were determined using a dose–response curve. The data were fitted to a nonlinear regression model (GraphPad Prism version 9.0, GraphPad Software, San Diego, CA, USA) to calculate the IC50 values for each compound tested in triplicate.
In data set [2] the test system is HEK293 human embryonic kidney cells. Briefly: MTT cytotoxicity in non-cancerous HEK293 cells. Type of data set: cell-based. Conditions: 24 h.
Description: as §3, §4, §5
Data set [3] concerns H69 human lung carcinoma cells. Kind of data set: MTT cell viability assay in H69 cells. Format: cell-based. Conditions: NCI-H69, 24 h, normalized to untreated control.
Description: as §2
(§6) The A549 non-small cell human lung carcinoma cells (ATCC CCL-185), H69 (HTB-19), H69AR (CRL-11351) were obtained from the American Type Culture Collection (Rockville, MD, USA). […] All cells were cultivated in Dulbecco’s Modified Eagle Medium/Nutrient Mixture F-12 (DMEM/F-12) (Gibco, Waltham, MA, USA), 10% fetal bovine serum (FBS) (Gibco, Waltham, MA, USA), 100 U/mL penicillin, and 100 μg/mL streptomycin (P/S) (Gibco, Waltham, MA, USA). Culturing conditions were maintained at 37 °C with a humidified atmosphere containing 5% CO2. The culture medium was refreshed every 2–3 days, and cells were passaged upon reaching 70–80% confluence.
as §4
A further data set concerns H69AR cells. Briefly: MTT cell viability assay in anthracycline-resistant H69AR cells. Type of data set: cell-based. Conditions: Homo sapiens, 24 h, normalized to untreated control.
For data set [4], the system named is A549 agarose-based spheroids. Kind of data set: LDH release cytotoxicity assay in A549 3D spheroids. Type of data set: cell-based, human. Conditions: 100 µM, 24 h. How it is done: (§1) A549 tumor spheroids were generated using an agarose-based technique with modifications. A549 cells were plated at a density of 2.5 × 10^5 cells/well in 96-well plates pre-coated with 50 µL of 1% agarose in Dulbecco’s Phosphate-Buffered Saline (DPBS). The plates were incubated for 48 h to allow spheroid formation. After 48 h, the spheroids were treated with 100 µM of compounds dissolved in DMEM/F12 supplemented with 10% FBS and 0.25% DMSO for 24 h.
A549 tumor spheroids were generated in 96-well plates pre-coated with 50 µL of 1% agarose in Dulbecco’s Phosphate-Buffered Saline (DPBS), as described previously. After 48 h of spheroid formation, the spheroids were treated with compounds dissolved in DMEM/F12 supplemented with 10% FBS and 0.25% DMSO. After a 24 h incubation, spheroid-conditioned media were collected by centrifuging the plates at 1000× g for 2 min to remove the spheroids. Then, 50 µL of the supernatant was transferred to a new 96-well plate and mixed with LDH assay reagent (Pierce LDH Cytotoxicity Assay Kit, Thermo Fisher Scientific, Waltham, MA, USA) according to the manufacturer’s instructions. A commercial maximum LDH control was used to normalize the results. The percentage of LDH release was calculated based on the absorbance readings, using the formula: (sample absorbance − blank absorbance)/(maximum control absorbance − blank absorbance) × 100%.

Data set [5] relates to A549 agarose-based spheroids. Kind of data set: AO/PI staining of A549 spheroids. Type of data set: cell-based, human. Conditions: 100 µM, 24 h. The method, then: as §1
After treatment with compounds, spheroids were incubated with 5 µg/mL acridine orange and 5 µg/mL propidium iodide for 30 min at 37 °C in a humidified incubator. Following incubation, the spheroids were washed twice with DPBS to remove excess stain. The stained spheroids were then visualized using the EVOS cell imaging system (Thermo Fisher Scientific, Waltham, MA, USA). The fluorescent images were captured, and the viability of the spheroids was assessed based on the differential staining patterns, with live cells showing green fluorescence (acridine orange) and dead cells displaying red fluorescence (propidium iodide).

Data set [6] has as its system A549 human lung adenocarcinoma cells. Conditions: for A549 cell viability: 100 µM.
Description: as §2, §3, §4, §5

Like-named read-outs stand apart in the source and are kept apart here.

Description for H69AR cells: as §2, §6, §4

On to `C/C(=N/O)c1ccc(N(CCC(=O)NN)c2nc(-c3ccccc3)cs2)cc1` [Compound 25, 3-/{4-[1-(Hydroxyimino)ethyl]phenyl}(4-phenylthiazol-2-yl)amino/propanehydrazide], for which the figures for the concentration for half-maximal inhibition (IC50) in data set [1] and in data set [2] (Homo sapiens) were 8.05 µM and 10.7 µM, respectively. The viability at 100 µM is 25% in data set [1], 27.7% in data set [3] and 48.4% with H69AR cells. Further, the “LDH release (cytotoxicity)” value in data set [4] is listed as 72.1%. In data set [5], the “spheroid morphology and cell viability by AO/PI staining” value (“spheroid morphology and cell viability” below) was “substantial disruption of spheroid architecture and widespread PI-positive staining”.
`CC(=NNc1ccccc1)c1ccc(N(CCC(=O)O)c2nc(-c3ccc(Cl)cc3)cs2)cc1` [Compound 28, 3-/[4-(4-Chlorophenyl)thiazol-2-yl]{4-[1-(2-phenylhydrazineylidene)ethyl]phenyl}amino/propanoic acid]: in data set [6], the A549 cell viability was 82.4–100%.
Turning to `COC(=O)CCN(c1ccc(/C(C)=N\O)cc1)c1nc(-c2ccc(Cl)cc2)cs1` [Compound 24, Methyl 3-/[4-(4-chlorophenyl)thiazol-2-yl]{4-[1-(hydroxyimino)ethyl]phenyl}amino/propanoate], in data set [1], the viability at 100 µM amounted to 77.7%.
Take `COC(=O)CCN(c1ccc(C(C)=O)cc1)c1nc(-c2ccccc2)cs1` [Compound 29, Methyl 3-[(4-acetylphenyl)(4-phenylthiazol-2-yl)amino]propanoate]: the viability at 100 µM in data set [1] was 82.4 to 100%.
Regarding `COC(=O)CCN(c1ccc(/C(C)=N\O)cc1)c1nc(-c2ccccc2)cs1` [Compound 23, Methyl 3-/{4-[1-(hydroxyimino)ethyl]phenyl}(4-phenylthiazol-2-yl)amino/propanoate], the viability at 100 µM in data set [1] worked out at 41.9%.
As to `CC(=O)c1ccc(N(CCC(=O)O)c2nc(-c3ccccc3)c(C(c3ccc(F)cc3)c3sc(N(CCC(=O)O)c4ccc(C(C)=O)cc4)nc3-c3ccccc3)s2)cc1` [Compound 14, 3,3′-/{[(4-Fluorophenyl)methylene]bis(4-phenylthiazole-5,2-diyl)}bis[(4 acetylphenyl)azanediyl]/dipropionic acid], the viability at 100 µM in data set [1] amounted to 47.8%.
On to `C/C(=N/O)c1ccc(N(CCC(=O)O)c2nc(-c3ccc(Cl)cc3)cs2)cc1` [Compound 22, 3-/[4-(4-Chlorophenyl)thiazol-2-yl]{4-[1-(hydroxyimino)ethyl]phenyl}amino/propanoic acid], for which the IC50 in data set [1] was 2.47 µM; in data set [2] (Homo sapiens), 38 µM. In addition, the viability at 100 µM in data set [1] was found to be 37.6%; in data set [3] it was 33.9%; in the data set on H69AR cells, 26.6%. Further, the “LDH release (cytotoxicity)” value in data set [4] is given as 40.6%. Besides, the “spheroid morphology and cell viability” value in data set [5] is listed as “partial cell death”.
`CC(=NNc1ccccc1)c1ccc(N(CCC(=O)O)c2nc(-c3ccccc3)cs2)cc1` [Compound 27, 3-/{4-[1-(2-Phenylhydrazineylidene)ethyl]phenyl}(4-phenylthiazol-2-yl)amino/propanoic acid]: the A549 cell viability in data set [6] is 82.4–100%.
For `CC(=NN)c1ccc(N(CCC(=O)NN)c2nc(-c3ccc(Cl)cc3)cs2)cc1` [Compound 32, 3-{[4-(4-Chlorophenyl)thiazol-2-yl][4-(1-hydrazineylideneethyl)phenyl]amino}propanehydrazide], the viability at 100 µM in data set [1] is 84%.
On to `CC(=NN)c1ccc(N(CCC(=O)NN)c2nc(-c3ccccc3)cs2)cc1` [Compound 31, 3-{[4-(1-Hydrazineylideneethyl)phenyl](4-phenylthiazol-2-yl)amino}propanehydrazide], for which, in data set [1], the viability at 100 µM amounted to 67.1%.
`C/C(=N/O)c1ccc(N(CCC(=O)O)c2nc(-c3ccccc3)cs2)cc1` [Compound 21, 3-/{4-[1-(Hydroxyimino)ethyl]phenyl}(4-phenylthiazol-2-yl)amino/propanoic acid]: the concentration for half-maximal inhibition (IC50) in data set [1] amounted to 5.42 µM; in data set [2] (Homo sapiens), 14.6 µM. Further, the viability at 100 µM in data set [1] turned out to be 35.3%; in data set [3] it was 18.3%; in the data set on H69AR cells, 23.5%. The “LDH release (cytotoxicity)” value in data set [4] turned out to be 66.7%. Moreover, in data set [5], the “spheroid morphology and cell viability” value was “partial cell death”.
Consider `COc1cccc2c1C(=O)c1c(O)c3c(c(O)c1C2=O)C[C@@](O)(C(=O)CO)C[C@@H]3O[C@H]1C[C@H](N)[C@H](O)[C@H](C)O1` [DOX, doxorubicin, reference compound], for which the IC50 in data set [1] amounted to 3.02 µM; in data set [2] (Homo sapiens) it was 3.82 µM.
Regarding `COC(=O)CCN(c1ccc(C(C)=O)cc1)c1nc(-c2ccc(Cl)cc2)cs1` [Compound 30, Methyl 3-{(4-acetylphenyl)[4-(4-chlorophenyl)thiazol-2-yl]amino}propanoate], in data set [1], the viability at 100 µM is 82.4 to 100%.
In turn, “3,3′-{[(Phenylmethylene)bis(4-phenylthiazole-2,5-diyl)]bis[(4-acetylphenyl)azanediyl]}dipropionic acid [Compound 13]” registered an A549 cell viability in data set [6] of 57.6%.
For the compound `C/C(=N/O)c1ccc(N(CCC(=O)NN)c2nc(-c3ccc(Cl)cc3)cs2)cc1` [Compound 26, 3-/[4-(4-Chlorophenyl)thiazol-2-yl]{4-[1-(hydroxyimino)ethyl]phenyl}amino/propanehydrazide], the IC50 in data set [1] was found to be 25.4 µM; in data set [2] (Homo sapiens) it was 13.8 µM. Further, the viability at 100 µM in data set [1] turned out to be 30.5%; in data set [3], 67%; in the data set on H69AR cells, 15.4%. The “LDH release (cytotoxicity)” value in data set [4] was found to be 89.9%. Moreover, in data set [5], the “spheroid morphology and cell viability” value was “substantial disruption of spheroid architecture and widespread PI-positive staining”.
For the compound `N.N.[Cl][Pt][Cl]` [CP, cisplatin, reference compound], the IC50 in data set [6] (A549 cells, 24 h, MTT) is 11.7 µM; in data set [2] it was 5.57 µM.
